Earlier results as cited in patent publication US9382233B2, “Forms of vilazodone and processes for the preparation thereof” (APOTEX INC., priority 2012, dated 2016).

Conditions: benzyl alcohol and its equivalents (benzoic acid, benzoate salts, benzaldehyde, benzyl acetate and benzyl benzoate); World Health Organization (JECFA, 2001)

- acceptable daily intake (ADI): 5 mg/kg
SMILES: OCc1ccccc1 [benzyl alcohol]
